These results are taken from US8673906B2, “Chromenone derivatives” (AstraZeneca AB, priority 2010, dated 2014).

Molecules are shown by their SMILES. Like-named read-outs stand apart in the source and are kept apart here.

This assay addresses PI3Kβ (Homo sapiens (Human), UniProt P42338). The assay is described as follows: In vitro enzyme inhibition assay (Kinase Glo based enzyme activity assay). The format is biochemical. The protocol: (a) In Vitro Enzyme Inhibition Assay
The inhibition of PI3Kβ, PI3Kα, PI3Kγ and PI3Kδ was evaluated in a Kinase Glo based enzyme activity assay using human recombinant enzymes. The assay measures depletion of ATP after incubation with enzyme, PIP2 and ATP plus compound. ATP at the end of the reaction is detected by addition of Kinase Glo reagent, in this the Ultra Glo™ luciferase (Promega) uses the ATP as a substrate to catalyze the mono-oxygenation of luciferin and the generation of light. A direct relationship exists between the luminescence measured with the Kinase-Glo Plus Reagent and the amount of ATP remaining in a completed kinase reaction and luminescence is inversely related to kinase activity. Twelve different compound concentrations were tested and raw data from the inhibition of PI3 Kb, PI3Kα, PI3Kγ and PI3Kδ was plotted versus inhibitor concentration.
Compounds in 100% DMSO were added to assay plates by acoustic dispensing. PI3Kβ was added in a Tris buffer (50 mM Tris pH7.4, 0.05% CHAPS, 2.1 mM DTT, and 10 mM MgCl2) and allowed to preincubate with compound for 20 minutes prior to addition of substrate solution containing PIP2 and ATP. The enzyme reaction was stopped after 80 minutes by the addition of Kinase Glo detection solution. Plates were left for 30 minutes at room temperature then read on a Pherastar Instrument (Luminescence ATP 384 program) setting gain on max well. The final concentration of DMSO, ATP and PIP2 in the assay were, 1%, 80 μM, and 80 μM respectively.
IC50 values were calculated using a log curve fitting to a non-linear regression package, fitting raw data to inhibitor concentration.

Setting [1] is: Test (a), human recombinant enzyme, read-out: PI3Kβ inhibition, IC50.

PI3Kβ, sequence (P42338 whole entry): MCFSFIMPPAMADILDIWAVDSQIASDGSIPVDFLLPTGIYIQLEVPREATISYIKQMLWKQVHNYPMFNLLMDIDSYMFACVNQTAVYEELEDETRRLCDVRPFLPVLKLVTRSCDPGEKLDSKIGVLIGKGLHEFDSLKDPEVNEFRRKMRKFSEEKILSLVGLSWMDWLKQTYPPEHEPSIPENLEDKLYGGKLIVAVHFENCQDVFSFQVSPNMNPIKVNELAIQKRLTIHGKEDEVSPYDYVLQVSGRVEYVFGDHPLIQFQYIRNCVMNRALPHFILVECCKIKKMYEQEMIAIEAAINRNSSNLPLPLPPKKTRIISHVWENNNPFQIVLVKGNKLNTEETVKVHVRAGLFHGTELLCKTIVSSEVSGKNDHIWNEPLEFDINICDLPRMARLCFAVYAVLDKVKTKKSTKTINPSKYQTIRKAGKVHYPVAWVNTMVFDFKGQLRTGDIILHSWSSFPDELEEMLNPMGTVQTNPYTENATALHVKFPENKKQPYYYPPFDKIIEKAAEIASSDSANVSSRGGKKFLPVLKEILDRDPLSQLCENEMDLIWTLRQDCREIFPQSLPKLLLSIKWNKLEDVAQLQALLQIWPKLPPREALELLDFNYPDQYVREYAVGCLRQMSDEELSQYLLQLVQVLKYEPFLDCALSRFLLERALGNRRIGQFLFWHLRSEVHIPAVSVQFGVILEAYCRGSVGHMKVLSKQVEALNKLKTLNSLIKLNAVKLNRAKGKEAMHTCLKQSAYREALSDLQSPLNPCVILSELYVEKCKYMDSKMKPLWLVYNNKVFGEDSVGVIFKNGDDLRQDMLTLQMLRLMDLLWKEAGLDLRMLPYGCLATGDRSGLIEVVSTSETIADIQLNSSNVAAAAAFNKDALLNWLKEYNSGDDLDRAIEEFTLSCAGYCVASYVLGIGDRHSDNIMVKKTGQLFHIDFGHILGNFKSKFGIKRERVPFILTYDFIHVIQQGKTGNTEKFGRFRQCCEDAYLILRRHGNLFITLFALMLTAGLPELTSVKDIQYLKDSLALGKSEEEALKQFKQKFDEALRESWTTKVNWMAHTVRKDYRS
PI3Kβ, sequence (P27986 whole entry partner): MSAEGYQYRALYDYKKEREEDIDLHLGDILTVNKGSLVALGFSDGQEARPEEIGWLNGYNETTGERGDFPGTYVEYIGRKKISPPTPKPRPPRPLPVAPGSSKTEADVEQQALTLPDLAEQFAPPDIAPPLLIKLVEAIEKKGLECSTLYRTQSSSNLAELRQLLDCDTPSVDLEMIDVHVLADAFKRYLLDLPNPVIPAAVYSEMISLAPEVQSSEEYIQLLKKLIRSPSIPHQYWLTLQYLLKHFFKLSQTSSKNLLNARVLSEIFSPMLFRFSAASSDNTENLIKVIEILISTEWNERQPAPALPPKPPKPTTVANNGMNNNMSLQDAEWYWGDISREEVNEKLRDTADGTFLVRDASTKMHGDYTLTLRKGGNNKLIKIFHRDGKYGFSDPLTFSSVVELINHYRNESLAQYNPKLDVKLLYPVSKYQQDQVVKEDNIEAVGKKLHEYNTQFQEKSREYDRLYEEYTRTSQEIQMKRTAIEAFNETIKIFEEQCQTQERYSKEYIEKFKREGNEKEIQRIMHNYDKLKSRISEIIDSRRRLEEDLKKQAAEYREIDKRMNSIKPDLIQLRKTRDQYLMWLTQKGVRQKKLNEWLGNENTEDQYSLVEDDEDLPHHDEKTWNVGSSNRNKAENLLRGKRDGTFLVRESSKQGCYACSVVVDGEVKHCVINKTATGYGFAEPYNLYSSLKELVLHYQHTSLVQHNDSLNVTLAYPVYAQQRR

For the molecule `CC(Nc1cc(F)cc(F)c1)c1cc(C(=O)N2CC[C@H](O)C2)cc2c(=O)cc(N3CCOCC3)oc12` (single isomer, unassigned) [Example 2.08], the IC50 under setting [1] came out at 7 nM.
On the same count and under the same terms, with `CC(Nc1ccc(F)c(F)c1)c1cc(C(=O)N(C)C)cc2c(=O)cc(N3CCOCC3)oc12` (single isomer, unassigned) [Example 3.03a, 8-(1-(3,4-difluorophenylamino)ethyl)-N,N-dimethyl-2-morpholino-4-oxo-4H-chromene-6-carboxamide] the figure was 649 nM; with `CC(Nc1ccc(F)c(F)c1)c1cc(C(=O)N(C)C)cc2c(=O)cc(N3CCOCC3)oc12` (single isomer, unassigned) [Example 3.03b, 8-(1-(3,4-difluorophenylamino)ethyl)-N,N-dimethyl-2-morpholino-4-oxo-4H-chromene-6-carboxamide], 3 nM; with `CC(Nc1cccc(Cl)c1F)c1cc(C(=O)N(C)C)cc2c(=O)cc(N3CCOCC3)oc12` (single isomer, unassigned) [Example 3.04a, 8-(1-(3-chloro-2-fluorophenylamino)ethyl)-N,N-dimethyl-2-morpholino-4-oxo-4H-chromene-6-carboxamide], 2250 nM.
The same measure, in the same setting: the value for `CC(Nc1cccc(Cl)c1F)c1cc(C(=O)N(C)C)cc2c(=O)cc(N3CCOCC3)oc12` (single isomer, unassigned) [Example 3.04b, 8-(1-(3-chloro-2-fluorophenylamino)ethyl)-N,N-dimethyl-2-morpholino-4-oxo-4H-chromene-6-carboxamide] was 3 nM.
Take `CC(c1cc(C(=O)N2CCC(O)CC2)cc2c(=O)cc(N3CCOCC3)oc12)N(C)c1cc(F)cc(F)c1` (single isomer, unassigned) [Example 7.01a, 8-(1-((3,5-difluorophenyl)(methyl)amino)ethyl)-6-(4-hydroxypiperidine-1-carbonyl)-2-morpholino-4H-chromen-4-one]: the IC50 under setting [1] stood at 8 nM.
Turning to `CC(c1cc(C(=O)N2CCC(O)CC2)cc2c(=O)cc(N3CCOCC3)oc12)N(C)c1cc(F)cc(F)c1` (single isomer, unassigned) [Example 7.01b, 8-(1-((3,5-difluorophenyl)(methyl)amino)ethyl)-6-(4-hydroxypiperidine-1-carbonyl)-2-morpholino-4H-chromen-4-one], the IC50 under setting [1] is 4320 nM.
Take `CC(Nc1cc(F)cc(F)c1)c1cc(C(=O)N(C)C)cc2c(=O)cc(N3CCO[C@H](C)C3)oc12` (single isomer, unassigned) [Example 9.01a]: under setting [1], the IC50 worked out at 17900 nM.
The same measure, in the same setting: the value for `CC(Nc1cc(F)cc(F)c1)c1cc(C(=O)N(C)C)cc2c(=O)cc(N3CCO[C@H](C)C3)oc12` (single isomer, unassigned) [Example 9.01b] was 3 nM.
Regarding `CC(Nc1cc(F)cc(F)c1)c1cc(C(=O)N(C)C)cc2c(=O)cc(N3CCO[C@@H](C)C3)oc12` (single isomer, unassigned) [Example 9.02a], the IC50 under setting [1] came out at 22700 nM.
As for `CC(Nc1cc(F)cc(F)c1)c1cc(C(=O)N(C)C)cc2c(=O)cc(N3CCO[C@@H](C)C3)oc12` (single isomer, unassigned) [Example 9.02b], the IC50 under setting [1] is 7 nM.
Still for that read-out and setting: with `CC(Nc1cc(F)cc(F)c1F)c1cc(C(=O)N(C)C)cc2c(=O)cc(N3CCOCC3)oc12` (single isomer, unassigned; (-)) [Example 3.13b, (−)-N,N-dimethyl-2-morpholino-4-oxo-8-(1-(2,3,5-trifluorophenylamino)ethyl)-4H-chromene-6-carboxamide] the figure was 4 nM; with `CC(Nc1cccc(F)c1)c1cc(C(=O)NCCN(C)C)cc2c(=O)cc(N3CCOCC3)oc12` (stereo not drawn) [Example 1.01, N-(2-(dimethylamino)ethyl)-8-(1-(3-fluorophenylamino)ethyl)-2-morpholino-4-oxo-4H-chromene-6-carboxamide], 1 nM.
With `CC(Nc1ccccc1)c1cc(C(=O)NCCN(C)C)cc2c(=O)cc(N3CCOCC3)oc12` (stereo not drawn) [Example 1.02, N-(2-(dimethylamino)ethyl)-2-morpholino-4-oxo-8-(1-(phenylamino)ethyl)-4H-chromene-6-carboxamide], the IC50 under setting [1] is 2 nM.
In the case of `CC(Nc1cccc(Cl)c1F)c1cc(C(=O)NCCN(C)C)cc2c(=O)cc(N3CCOCC3)oc12` (stereo not drawn) [Example 2.00, 8-(1-(3-chloro-2-fluorophenylamino)ethyl)-N-(2-(dimethylamino)ethyl)-2-morpholino-4-oxo-4H-chromene-6-carboxamide], the IC50 under setting [1] worked out at 9 nM.
The same measure, in the same setting: with `CC(Nc1ccc(F)cc1)c1cc(C(=O)N(C)C)cc2c(=O)cc(N3CCOCC3)oc12` (stereo not drawn) [Example 2.01, 8-(1-(4-fluorophenylamino)ethyl)-N,N-dimethyl-2-morpholino-4-oxo-4H-chromene-6-carboxamide] the figure was 7 nM; with `CC(Nc1ccc(F)cc1)c1cc(C(=O)N(C)CCN(C)C)cc2c(=O)cc(N3CCOCC3)oc12` (stereo not drawn) [Example 2.02, N-(2-(dimethylamino)ethyl)-8-(1-(4-fluorophenylamino)ethyl)-N-methyl-2-morpholino-4-oxo-4H-chromene-6-carboxamide], 7 nM.
Take `CC(Nc1ccc(F)c(Cl)c1)c1cc(C(=O)N2CCC(O)CC2)cc2c(=O)cc(N3CCOCC3)oc12` (stereo not drawn) [Example 2.03, 8-(1-(3-chloro-4-fluorophenylamino)ethyl)-6-(4-hydroxypiperidine-1-carbonyl)-2-morpholino-4h-chromen-4-one]: the IC50 under setting [1] was 6 nM.
The same measure, in the same setting: the value for `CC(Nc1ccc(F)c(Cl)c1)c1cc(C(=O)N(C)CCO)cc2c(=O)cc(N3CCOCC3)oc12` (stereo not drawn) [Example 2.04, 8-(1-(3-chloro-4-fluorophenylamino)ethyl)-N-(2-hydroxyethyl)-N-methyl-2-morpholino-4-oxo-4H-chromene-6-carboxamide] was 4 nM; that for `CC(Nc1cccc(Cl)c1F)c1cc(C(=O)N2CCC(O)CC2)cc2c(=O)cc(N3CCOCC3)oc12` (stereo not drawn) [Example 2.06, 8-(1-(3-chloro-2-fluorophenylamino)ethyl)-6-(4-hydroxypiperidine-1-carbonyl)-2-morpholino-4H-chromen-4-one] was 6 nM; that for `CC(Nc1cc(F)cc(F)c1)c1cc(C(=O)N2CCOCC2)cc2c(=O)cc(N3CCOCC3)oc12` (stereo not drawn) [Example 2.07, 8-(1-(3,5-difluorophenylamino)ethyl)-6-(morpholine-4-carbonyl)-2-morpholino-4H-chromen-4-one] was 5 nM.
In the case of `CC(c1cc(C(=O)NCCN(C)C)cc2c(=O)cc(N3CCOCC3)oc12)N(C)c1ccc(F)cc1` (stereo not drawn) [Example 3.00, N-(2-(dimethylamino)ethyl)-8-(1-((4-fluorophenyl)(methyl)amino)ethyl)-2-morpholino-4-oxo-4H-chromene-6-carboxamide], the IC50 under setting [1] was found to be 7 nM.
Still for that read-out and setting: with `CC(c1cc(C(=O)N(C)CCN(C)C)cc2c(=O)cc(N3CCOCC3)oc12)N(C)c1ccc(F)cc1` (stereo not drawn) [Example 3.02, N-(2-(dimethylamino)ethyl)-8-(1-((4-fluorophenyl)(methyl)amino)ethyl)-N-methyl-2-morpholino-4-oxo-4H-chromene-6-carboxamide] the figure was 11 nM; with `CC(Nc1ccc(F)c(Cl)c1)c1cc(C(=O)N(C)C)cc2c(=O)cc(N3CCOCC3)oc12` (stereo not drawn) [Example 3.05, 8-(1-(3-chloro-4-fluorophenylamino)ethyl)-N,N-dimethyl-2-morpholino-4-oxo-4H-chromene-6-carboxamide], 6 nM; with `CC(c1cc(C(=O)N(C)C)cc2c(=O)cc(N3CCOCC3)oc12)N(C)c1ccc(F)c(Cl)c1` (stereo not drawn) [Example 3.08, 8-(1-((3-chloro-4-fluorophenyl)(methyl)amino)ethyl)-N,N-dimethyl-2-morpholino-4-oxo-4H-chromene-6-carboxamide], 11 nM.
The same measure, in the same setting: with `CC(Nc1cccc(Cl)c1)c1cc(C(=O)N(C)C)cc2c(=O)cc(N3CCOCC3)oc12` (stereo not drawn) [Example 3.09, 8-(1-(3-chlorophenylamino)ethyl)-N,N-dimethyl-2-morpholino-4-oxo-4H-chromene-6-carboxamide] the figure was 4 nM; with `CC(Nc1cccc(F)c1F)c1cc(C(=O)N(C)C)cc2c(=O)cc(N3CCOCC3)oc12` (stereo not drawn) [Example 3.10, 8-(1-(2,3-difluorophenylamino)ethyl)-N,N-dimethyl-2-morpholino-4-oxo-4H-chromene-6-carboxamide], 4 nM.
Consider `CC(Nc1cccc(F)c1)c1cc(C(=O)N(C)C)cc2c(=O)cc(N3CCOCC3)oc12` (stereo not drawn) [Example 3.12, 8-(1-(3-fluorophenylamino)ethyl)-N,N-dimethyl-2-morpholino-4-oxo-4H-chromene-6-carboxamide], for which the IC50 (mean IC50 value calculated from a larger number of replicates, read-out: PI3Kβ inhibition, IC50 (value in brackets)) was 5 nM.
With `CC(Nc1cc(F)cc(F)c1F)c1cc(C(=O)N(C)C)cc2c(=O)cc(N3CCOCC3)oc12` (stereo not drawn) [Example 3.13, N,N-dimethyl-2-morpholino-4-oxo-8-(1-(2,3,5-trifluorophenylamino)ethyl)-4H-chromene-6-carboxamide], the IC50 under setting [1] turned out to be 6 nM.
On the same count and under the same terms, with `CC(Nc1cc(F)ccc1F)c1cc(C(=O)N(C)C)cc2c(=O)cc(N3CCOCC3)oc12` (stereo not drawn) [Example 3.15, 8-(1-(2,5-difluorophenylamino)ethyl)-N,N-dimethyl-2-morpholino-4-oxo-4H-chromene-6-carboxamide] the figure was 10 nM.
